Experimental findings from patent US8450304B2, “4-azetidinyl-1-heteroaryl-cyclohexanol antagonists of CCR2” (Janssen Pharmaceutica N.V., priority 2008, dated 2013) are described below.

One experiment addresses T1, CCR2 (Homo sapiens, UniProt P41597).
T1 construct: host or cells: THP-1 (human monocytic cell line), whole cells
The experiment in a line: MCP-1 Receptor Binding Assay in THP-1 Cells. The following applies: 0.5 nM 125I labeled MCP-1, 2 hours at 30° C., read-out: Inhibition of MCP-1 Binding IC50, CCR2 Binding. On the procedure:
Compounds of the invention were subjected to various representative biological tests. […] MCP-1 Receptor Binding Assay in THP-1 Cells
Human monocytic cell line THP-1 cells were obtained from American Type Culture Collection (Manassas, Va., USA). […] The cell density was maintained […].
1 μM cold MCP-1 was used for nonspecific binding.

Another experiment deals with cell migration. The experiment in a line: Murine in vivo cell migration assay. The arrangement: species or system mice. The following applies: 10 mpk, P.O. bid; human MCP-1 on small bowel serosa; 24 hours. From the text:
(§1) Mouse CCR2 knock-out/human CCR2 knock-in mice were generated using targeted 129Sv/Evbrd embryonic stem cell clones injected into C57BL/6 mice. Expression of the hCCR2 transcript was confirmed by quantitative reverse transcription-polymerase chain reaction performed on spleen and blood total RNA from homozygous hCCR2 knock-in mice. Backcrossing into C57BL/6 genetic background continued to the eighth generation. Transgenic mice were housed in a specific-pathogen-free, temperature-controlled facility that maintained a 12-hour light/12-hour dark cycle. Mice had free access to water and food. Experimental procedures were carried out in accordance with institutional standards for animal care and were approved by the institute's animal care and use committee.
Animals were orally dosed with vehicle or CCR2 antagonists at 3, 10 and 30 mg/kg bid. Animals underwent anesthesia and laparotomy. A distal loop of small bowel (5 cm in length) was gently eventrated onto moist sterile gauze. Synthetic human MCP-1 ([…] sterile PBS) or PBS alone was administered drop-wise onto the serosa of the eventrated loop. A suture knot was placed into the mesentery to mark the terminus of the treated area. Twenty-four hours later, the animal was sacrificed and the segment of bowel plus the adjacent region was removed. The tissue was opened along the mesenteric border, pinned flat and the mucosa removed. […]

Experiment [1] in a line: High-fat diet induced obesity and insulin resistance in mice. The following applies: 10 mpk, p.o. bid; high-fat diet obese mice; 40 days treatment. In kind it is in vivo. The text has this:
(§2) Mouse CCR2 knock-out/human CCR2 knock-in mice were generated using targeted 129Sv/Evbrd embryonic stem cell clones injected into C57BL/6 mice. Expression of the hCCR2 transcript was confirmed by quantitative reverse transcription-polymerase chain reaction performed on spleen and blood total RNA from homozygous hCCR2 knock-in mice. Backcrossing into C57BL/6 genetic background continued to the eighth generation. Transgenic mice were housed in a specific-pathogen-free, temperature-controlled facility that maintained a 12-hour light/12-hour dark cycle. Mice had free access to water and food. […]
Obesity was induced by a high-fat diet that derived approximately 60% calories from lipids (D-12492; Research Diets Inc.) in animals for 10-24 weeks at age of 7 weeks. […] Body weight and food intake and fasting blood glucose levels were monitored. Body mass was determined by a NMR analyzer (Burker MiniSpec). […] After an intraperitoneal bolus injection of recombinant human insulin (1.5 U/kg), blood glucose concentrations were measured using a Glucometer before and 15, 30, 45, 60, 90 and 120 minutes after injection. […] Blood glucose concentrations were measured before and after 15, 30, 60, 90, 120 minutes after an oral dose of glucose dissolved in water (1 g/kg). Energy expenditure analysis was monitored by a complete laboratory animal monitor system. […]

In experiment [2] the test system is total BAL leukocyte count (and eosinophil count). In words: Mouse model of allergic asthma. In kind it is in vivo. The following applies: 10 mpk, p.o. bid; OVA-sensitized mice; BAL on day 21.
Excerpt: as §2
Animals were sensitized by intraperitoneal injection of 10 μg chicken egg albumin (OVA) absorbed to 1 mg Imject® in 100 μL phosphate-buffered saline (PBS) on days 0 and 5. […] On day 21, 2 hours post the last dose of CCR2 compounds, bronchial reactivity to aerosolized methacholine was measured using a Buxco whole body plethysmograpgh. […] Bronchoalveolar lavage fluid was collected (1 mL) and total cells counted. The numbers of eosinophils, lymphocytes, monocytes and neutrophils were determined using cytospin analysis after Giemsa staining (Hema Tek 2000). Percent inhibition of total BAL leukocyte count (and eosinophil count) was calculated by comparing the compound-treated mice with vehicle-treated mice. […]

For experiment [3], the system named is thioglycollate-induced peritonitis. The experiment in a line: Thioglycollate-induced peritonitis in mice. The class given is in vivo. The following applies: 10 mpk, p.o. bid; 72-hour time point; leukocytes in peritoneal lavage vs vehicle.
Excerpt: as §1
Animals were orally dosed with vehicle or CCR2 antagonists at 3, 10, 30 and 100 mg/kg bid). One hour later, the animals were intraperiponeally injected with sterile thioglycollate (25 mL/kg, ip, Sigma) for induction of peritonitis. Animals were orally treated twice daily with vehicle or CCR2 antagonists. At 72-hour time point, perinoteal cavities were lavaged with 10 mL of sterile saline. […] Percent inhibition of the thioglycollate-induced peritonitis was calculated by comparing the change in number of leukocytes of CCR2 antagonist treated mice to the vehicle-treated mice.

Experiment [4] concerns MCP-1-induced monocyte recruitment to airway. The experiment in a line: MCP-1-induced monocyte recruitment to airway of mice. The class given is in vivo. The following applies: 10 mpk, p.o. bid; 4 μg MCP-1 intranasally; after 48 h.
Excerpt: as §1
Animals were orally treated with vehicle or CCR2 antagonists at 3, 10, and 30 mg/kg po bid). One hour later, the animals were intranasally dosed with 4 μg of MCP-1 in sterile saline. The animals were orally treated twice daily with vehicle or CCR2 antagonists. After 48 h, mice were euthanized by intraperitoneal injection of anesthesia solution (Sleepaway-Sodium pentobarbital). […] Percent inhibition was calculated by comparing the change in number of total leukocyte counts (including monocytes/macrophages and lymphocytes) of compound-treated mice to the vehicle-treated mice. […]

SMILES strings stand for the structures.

T1 sequence (P41597 whole entry): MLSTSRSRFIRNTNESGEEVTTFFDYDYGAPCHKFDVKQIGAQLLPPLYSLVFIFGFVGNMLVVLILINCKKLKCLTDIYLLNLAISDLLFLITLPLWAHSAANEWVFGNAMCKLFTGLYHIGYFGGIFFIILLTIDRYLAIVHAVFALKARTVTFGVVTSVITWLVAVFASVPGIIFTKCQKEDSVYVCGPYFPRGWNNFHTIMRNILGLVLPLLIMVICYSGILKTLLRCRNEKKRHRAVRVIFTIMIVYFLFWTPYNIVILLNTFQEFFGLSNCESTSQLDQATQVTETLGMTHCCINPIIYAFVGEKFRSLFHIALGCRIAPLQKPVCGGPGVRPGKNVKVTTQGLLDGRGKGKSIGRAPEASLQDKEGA

As for `O=C(CNC(=O)c1cccc(C(F)(F)F)c1)NC1CN(C2CCC(O)(c3cccnc3)CC2)C1` (stereo not drawn) [Example 15, N-{[1-(4-Hydroxy-4-pyridin-3-yl-cyclohexyl)-azetidin-3-ylcarbamoyl]-methyl}-3-trifluoromethyl-benzamide], the IC50 on CCR2 turned out to be 190 nM.

Consider `CN(C)c1ncc(C2(O)CCC(N3CC(NC(=O)CNC(=O)c4cccc(C(F)(F)F)c4)C3)CC2)s1` (stereo not drawn) [Example 50, N-({1-[4-(2-Dimethylamino-thiazol-5-yl)-4-hydroxy-cyclohexyl]-azetidin-3-ylcarbamoyl}-methyl)-3-trifluoromethyl-benzamide], for which, at CCR2, the half-maximal inhibitory concentration (IC50) worked out at 560 nM.

Take `O=C(CNC(=O)c1cccc(C(F)(F)F)c1)NC1CN(C2CCC(O)(c3ccc(OCc4ccccc4)nc3)CC2)C1` (single isomer, unassigned) [Example 7a, N-({1-[4-(6-Benzyloxy-pyridin-3-yl)-4-hydroxy-cyclohexyl]-azetidin-3-ylcarbamoyl}-methyl)-3-trifluoromethyl-benzamide]: the IC50 on CCR2 worked out at 1900 nM.

Regarding `C#Cc1ncc(C2(O)CCC(N3CC(NC(=O)CNC(=O)c4cccc(C(F)(F)F)c4)C3)CC2)s1` (single isomer, unassigned) [Example 44a, N-({1-[4-(2-Ethynyl-thiazol-5-yl)-4-hydroxy-cyclohexyl]-azetidin-3-ylcarbamoyl}-methyl)-3-trifluoromethyl-benzamide], the IC50 at CCR2 came out at 340 nM.

Turning to `COc1ncc(C2(O)CCC(N3CC(NC(=O)CNC(=O)c4cccc(C(F)(F)F)c4)C3)CC2)c(OC)n1` (single isomer, unassigned) [Example 29a, N-({1-[4-(2,4-Dimethoxy-pyrimidin-5-yl)-4-hydroxy-cyclohexyl]-azetidin-3-ylcarbamoyl}-methyl)-3-trifluoromethyl-benzamide], the half-inhibitory concentration (IC50) on CCR2 was determined as 24000 nM.

With `O=C(CNC(=O)c1cccc(C(F)(F)F)c1)NC1CN(C2CCC(O)(c3cncs3)CC2)C1` (stereo not drawn) [Example 40, N-{[1-(4-Hydroxy-4-thiazol-5-yl-cyclohexyl)-azetidin-3-ylcarbamoyl]-methyl}-3-trifluoromethyl-benzamide], the “blocking cell migration (efficacious if the inhibition of cell migration reaches 30% compared with vehicle-treated animals)” value in the experiment on cell migration was “efficacious”. Further, the “reduce body weight (percent of weight loss vs vehicle-treated mice)” value in experiment [1] is > 8%. Further, the “reduction of cell count (efficacious if the inhibition reaches 30%)” value in experiment [2] is “efficacious”. Also, the “inhibition of thioglycollate-induced peritonitis” value in experiment [3] was > 50%. Further, the “percent inhibition of total leukocyte counts in BAL” value in experiment [4] is recorded as > 50%.

For `O=C(CNC(=O)c1cccc(C(F)(F)F)c1)NC1CN(C2CCC(O)(c3cnc(O)s3)CC2)C1` (stereo not drawn) [Example 48, N-({1-[4-Hydroxy-4-(2-hydroxy-thiazol-5-yl)-cyclohexyl]-azetidin-3-ylcarbamoyl}-methyl)-3-trifluoromethyl-benzamide], the IC50 at CCR2 turned out to be 560 nM.

With `Cc1ccc(C2(O)CCC(N3CC(NC(=O)CNC(=O)c4cc(F)cc(C(F)(F)F)c4)C3)CC2)cn1` (single isomer, unassigned) [Example 64a, 3-Fluoro-N-({1-[4-hydroxy-4-(6-methyl-pyridin-3-yl)-cyclohexyl]-azetidin-3-ylcarbamoyl}-methyl)-5-trifluoromethyl-benzamide], the IC50 at CCR2 turned out to be 37 nM.

In the case of `O=C(CNC(=O)c1cc(C(F)(F)F)cc(C(F)(F)F)c1)NC1CN(C2CCC(O)(c3nccs3)CC2)C1` (single isomer, unassigned) [Example 67a, N-{[1-(4-Hydroxy-4-thiazol-2-yl-cyclohexyl)-azetidin-3-ylcarbamoyl]-methyl}-3,5-bis-trifluoromethyl-benzamide], the half-maximal inhibitory concentration (IC50) at CCR2 stood at 370 nM.

With `COc1ccc(C2(O)CCC(N3CC(NC(=O)CNC(=O)c4cccc(C#N)c4)C3)CC2)cn1` (stereo not drawn) [Example 21, 3-Cyano-N-({1-[4-hydroxy-4-(6-methoxy-pyridin-3-yl)-cyclohexyl]-azetidin-3-ylcarbamoyl}-methyl)-benzamide], the IC50 at CCR2 turned out to be 7500 nM.

On to `COc1ncc(C2(O)CCC(N3CC(NC(=O)CNC(=O)c4cccc(C(F)(F)F)c4)C3)CC2)s1` (stereo not drawn) [Example 52, N-({1-[4-Hydroxy-4-(2-methoxy-thiazol-5-yl)-cyclohexyl]-azetidin-3-ylcarbamoyl}-methyl)-3-trifluoromethyl-benzamide], for which, at CCR2, the IC50 was 73 nM.

As to `Nc1ncc(C2(O)CCC(N3CC(NC(=O)CNC(=O)c4cccc(C(F)(F)F)c4)C3)CC2)s1` (stereo not drawn) [Example 49, N-({1-[4-(2-Amino-thiazol-5-yl)-4-hydroxy-cyclohexyl]-azetidin-3-ylcarbamoyl}-methyl)-3-trifluoromethyl-benzamide], the IC50 on CCR2 stood at 260 nM.

For the compound `O=C(CNC(=O)c1cccc(C(F)(F)F)c1)NC1CN(C2CCC(O)(c3ccc(Br)cn3)CC2)C1` (single isomer, unassigned) [Example 25a, N-({1-[4-(5-Bromo-pyridin-2-yl)-4-hydroxy-cyclohexyl]-azetidin-3-ylcarbamoyl}-methyl)-3-trifluoromethyl-benzamide], the IC50 on CCR2 worked out at 3100 nM.

Consider `O=C(CNC(=O)c1cccc(C(F)(F)F)c1)NC1CN(C2CCC(O)(c3nc4ccccc4o3)CC2)C1` (stereo not drawn) [Example 63, N-{[1-(4-Benzooxazol-2-yl-4-hydroxy-cyclohexyl)-azetidin-3-ylcarbamoyl]-methyl}-3-trifluoromethyl-benzamide], for which the IC50 on CCR2 worked out at 1000 nM.
